Measurements taken from ChEMBL document CHEMBL1136688, “Synthesis and SAR of aminoalkoxy-biaryl-4-carboxamides: novel and selective histamine H3 receptor antagonists” (Bioorg Med Chem Lett, 2003).

Key:
Histamine H3 receptor [1] = biological target: Histamine H3 receptor (Homo sapiens, UniProt Q9Y5N1); assay: Binding affinity for human recombinant H3 receptor
Histamine H3 receptor [2] = biological target: Histamine H3 receptor (Rattus norvegicus, UniProt Q9QYN8); assay: Binding affinity towards rat cortical H3 receptor
Histamine H1 receptor = Histamine H1 receptor (Homo sapiens, UniProt P35367); assay: Binding affinity towards human histamine (H1) receptor
Histamine H2 receptor = Histamine H2 receptor (Homo sapiens, UniProt P25021); assay: Binding affinity towards human histamine (H2) receptor
Sequence of Histamine H2 receptor (P25021 whole entry): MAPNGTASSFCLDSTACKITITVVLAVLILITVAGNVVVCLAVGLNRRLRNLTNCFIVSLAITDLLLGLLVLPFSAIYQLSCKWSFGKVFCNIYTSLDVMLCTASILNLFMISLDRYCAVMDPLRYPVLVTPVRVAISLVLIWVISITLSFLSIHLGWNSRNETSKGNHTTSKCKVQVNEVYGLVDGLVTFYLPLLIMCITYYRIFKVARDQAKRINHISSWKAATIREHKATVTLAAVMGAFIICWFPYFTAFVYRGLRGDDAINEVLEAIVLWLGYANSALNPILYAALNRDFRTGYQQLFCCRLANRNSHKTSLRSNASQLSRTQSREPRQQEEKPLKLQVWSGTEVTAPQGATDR

Sequence of Histamine H3 receptor (Homo sapiens, UniProt Q9Y5N1) (Q9Y5N1 whole entry): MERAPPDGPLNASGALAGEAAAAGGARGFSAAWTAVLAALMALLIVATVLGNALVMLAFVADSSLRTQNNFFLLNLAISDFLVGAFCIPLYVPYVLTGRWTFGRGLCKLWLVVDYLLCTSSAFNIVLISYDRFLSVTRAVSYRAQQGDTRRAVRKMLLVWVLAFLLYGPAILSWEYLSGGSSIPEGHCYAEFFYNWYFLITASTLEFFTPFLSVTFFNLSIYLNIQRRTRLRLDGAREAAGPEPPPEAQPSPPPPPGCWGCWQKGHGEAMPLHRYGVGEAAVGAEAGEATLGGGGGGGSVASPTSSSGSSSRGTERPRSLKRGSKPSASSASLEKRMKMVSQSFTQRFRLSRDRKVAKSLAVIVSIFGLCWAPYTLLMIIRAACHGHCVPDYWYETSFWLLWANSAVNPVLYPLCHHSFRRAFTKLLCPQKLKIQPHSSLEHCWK
Sequence of Histamine H3 receptor (Rattus norvegicus, UniProt Q9QYN8) (Q9QYN8 whole entry): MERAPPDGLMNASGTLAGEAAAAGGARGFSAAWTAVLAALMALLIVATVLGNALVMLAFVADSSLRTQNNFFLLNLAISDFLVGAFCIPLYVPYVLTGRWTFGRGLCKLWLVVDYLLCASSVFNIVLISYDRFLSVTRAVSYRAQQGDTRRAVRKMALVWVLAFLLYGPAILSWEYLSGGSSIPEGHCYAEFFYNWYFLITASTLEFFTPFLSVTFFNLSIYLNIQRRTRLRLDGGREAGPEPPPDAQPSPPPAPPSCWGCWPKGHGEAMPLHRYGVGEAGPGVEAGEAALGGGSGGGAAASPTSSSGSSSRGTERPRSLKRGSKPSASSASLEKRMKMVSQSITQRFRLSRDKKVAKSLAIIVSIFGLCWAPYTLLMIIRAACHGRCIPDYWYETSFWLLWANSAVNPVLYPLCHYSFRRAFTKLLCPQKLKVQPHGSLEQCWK
Sequence of Histamine H1 receptor (P35367 whole entry): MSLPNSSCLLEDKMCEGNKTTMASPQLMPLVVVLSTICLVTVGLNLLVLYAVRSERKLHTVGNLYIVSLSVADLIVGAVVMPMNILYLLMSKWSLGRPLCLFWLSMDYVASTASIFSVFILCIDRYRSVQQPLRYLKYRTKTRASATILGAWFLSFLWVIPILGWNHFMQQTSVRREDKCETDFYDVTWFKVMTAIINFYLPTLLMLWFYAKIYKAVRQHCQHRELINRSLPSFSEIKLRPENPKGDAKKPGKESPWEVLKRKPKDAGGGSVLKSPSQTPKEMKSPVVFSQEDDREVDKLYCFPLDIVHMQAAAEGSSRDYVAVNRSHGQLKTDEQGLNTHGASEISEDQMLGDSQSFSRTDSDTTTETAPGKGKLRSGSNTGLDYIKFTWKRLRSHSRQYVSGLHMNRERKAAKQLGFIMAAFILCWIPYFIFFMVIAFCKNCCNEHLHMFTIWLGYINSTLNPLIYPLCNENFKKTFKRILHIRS

Structure (SMILES) | Ki (Histamine H3 receptor [1]) | Ki (Histamine H3 receptor [2]) | Ki (Histamine H1 receptor) | Ki (Histamine H2 receptor)
O=C(c1ccc(-c2ccc(OCCCN3CC[C@H](O)C3)cc2)cc1)N1CCCC1 | 6.46 nM | 33.1 nM |  | 
CCN(CC)CCCOc1ccc(-c2ccc(C(=O)N3CCOCC3)cc2)cc1 | 2.4 nM | 8.91 nM |  | 
CC1CCN(C(=O)c2ccc(-c3ccc(OCCCN4CC[C@@H](N(C)C)C4)cc3)cc2)CC1 | 3.89 nM | 29.5 nM |  | 
CC1CCN(C(=O)c2ccc(-c3ccc(OCCCN4CCOCC4)cc3)cc2)CC1 | 23.4 nM | 70.8 nM |  | 
CC1CCN(C(=O)c2ccc(-c3ccc(OCCCNC(C)C)cc3)cc2)CC1 | 182 nM | 479 nM |  | 
C[C@H]1CC[C@H](C)N1C(=O)c1ccc(-c2ccc(OCCCN3CC[C@H](N(C)C)C3)cc2)cc1 | 4.37 nM | 17.4 nM |  | 
CC1CCN(C(=O)c2ccc(-c3ccc(OCCCN4[C@@H](C)CC[C@@H]4C)cc3)cc2)CC1 | 0.603 nM | 2.95 nM |  | 
O=C(c1ccc(-c2ccc(OCCCN3CCOCC3)cc2)cc1)N1CCCC1 | 40.7 nM | 178 nM |  | 
CCN(CC)CCCOc1ccc(-c2ccc(C(=O)N3CCC(C)CC3)cc2)cc1 | 3.47 nM | 8.32 nM |  | 
CCN(CC)C(=O)c1ccc(-c2ccc(OCCCN3CC[C@H](N(C)C)C3)cc2)cc1 | 6.92 nM | 28.2 nM |  | 
CCN(CC)CCCOc1ccc(-c2ccc(C(=O)N3CCCC3)cc2)cc1 | 3.02 nM | 12.9 nM |  | 
CC(C)NCCCOc1ccc(-c2ccc(C(=O)N3CCCC3C)cc2)cc1 (configuration not stated) | 9.77 nM | 42.7 nM |  | 
CC(C)NCCCOc1ccc(-c2ccc(C(=O)N3[C@@H](C)CC[C@@H]3C)cc2)cc1 | 229 nM | 219 nM |  | 
CC(C)NC(=O)c1ccc(-c2ccc(OCCCN3[C@@H](C)CC[C@@H]3C)cc2)cc1 | 0.851 nM | 2.82 nM |  | 
CCN(CC)C(=O)c1ccc(-c2ccc(OCCCNC(C)C)cc2)cc1 | 110 nM | 407 nM |  | 
CCN(CC)CCCOc1ccc(-c2ccc(C(=O)N3[C@@H](C)CC[C@@H]3C)cc2)cc1 | 5.13 nM | 13.8 nM |  | 
CN(C)[C@@H]1CCN(CCCOc2ccc(-c3ccc(C(=O)N4CCOCC4)cc3)cc2)C1 | 5.5 nM | 27.5 nM |  | 
CC(C)N(C)C(=O)c1ccc(-c2ccc(OCCCN3CC[C@H](O)C3)cc2)cc1 | 8.13 nM | 28.8 nM |  | 
C[C@H]1CC[C@H](C)N1CCCOc1ccc(-c2ccc(C(=O)N3CCCC3)cc2)cc1 | 0.692 nM | 5.13 nM |  | 
CC1CCN(C(=O)c2ccc(-c3ccc(OCCCN4CC[C@H](O)C4)cc3)cc2)CC1 | 6.92 nM | 30.9 nM |  | 
C[C@H]1CC[C@H](C)N1C(=O)c1ccc(-c2ccc(OCCCN3CCOCC3)cc2)cc1 | 37.2 nM | 115 nM |  | 
CC1CCN(CCCOc2ccc(-c3ccc(C(=O)N4CCOCC4)cc3)cc2)CC1 | 7.24 nM | 8.71 nM |  | 
CC1CCN(CCCOc2ccc(-c3ccc(C(=O)N4CCCC4)cc3)cc2)CC1 | 3.63 nM | 10.2 nM |  | 

Structure (SMILES) | Ki (Histamine H3 receptor [1]) | Ki (Histamine H3 receptor [2]) | Ki (Histamine H1 receptor) | Ki (Histamine H2 receptor)
CCN(CC)C(=O)c1ccc(-c2ccc(OCCCN3CCC(C)CC3)cc2)cc1 | 4.79 nM | 9.12 nM |  | 
CC(C)(C)CCC#C[C@@H]1C[C@H]1c1c[nH]cn1 [CIPRALISANT] | 2.14 nM | 0.195 nM |  | 
CCN(CC)C(=O)c1ccc(-c2ccc(OCCCN3CCOCC3)cc2)cc1 | 16.2 nM | 97.7 nM |  | 
CC(C)NC(=O)c1ccc(-c2ccc(OCCCN3CCOCC3)cc2)cc1 | 38.9 nM | 135 nM |  | 
C[C@H]1CC[C@H](C)N1CCCOc1ccc(-c2ccc(C(=O)N3[C@@H](C)CC[C@@H]3C)cc2)cc1 | 0.977 nM |  |  | 
C[C@H]1CC[C@H](C)N1C(=O)c1ccc(-c2ccc(OCCCN3CC[C@H](O)C3)cc2)cc1 | 11.2 nM | 57.5 nM |  | 
CCN(CC)C(=O)c1ccc(-c2ccc(OCCCN3CC[C@H](O)C3)cc2)cc1 | 8.13 nM | 42.7 nM |  | 
CC1CCCN1C(=O)c1ccc(-c2ccc(OCCCN3[C@@H](C)CC[C@@H]3C)cc2)cc1 (some centres not stated) | 0.776 nM | 1.02 nM |  | 
CCN(CC)CCCOc1ccc(-c2ccc(C(=O)NC(C)C)cc2)cc1 | 6.17 nM | 16.2 nM |  | 
CN(C)[C@@H]1CCN(CCCOc2ccc(-c3ccc(C(=O)N4CCCC4)cc3)cc2)C1 | 2.88 nM | 18.6 nM |  | 
CC1CCN(CCCOc2ccc(-c3ccc(C(=O)N4CCCC4C)cc3)cc2)CC1 (configuration not stated) | 3.72 nM | 2.82 nM |  | 
CC1CCN(CCCOc2ccc(-c3ccc(C(=O)N4CCC(C)CC4)cc3)cc2)CC1 | 10.7 nM | 20.9 nM |  | 
CC1CCCN1C(=O)c1ccc(-c2ccc(OCCCN3CC[C@H](N(C)C)C3)cc2)cc1 (some centres not stated) | 6.46 nM | 21.4 nM |  | 
CC1CCN(CCCOc2ccc(-c3ccc(C(=O)NC(C)C)cc3)cc2)CC1 | 2.09 nM | 3.8 nM |  | 
O=C(c1ccc(-c2ccc(OCCCN3CCOCC3)cc2)cc1)N1CCOCC1 | 18.2 nM | 52.5 nM |  | 
O=C(c1ccc(-c2ccc(OCCCN3CC[C@H](O)C3)cc2)cc1)N1CCOCC1 | 6.17 nM | 32.4 nM |  | 
CCN(CC)C(=O)c1ccc(-c2ccc(OCCCN3[C@@H](C)CC[C@@H]3C)cc2)cc1 | 0.776 nM |  |  | 
CC1CCN(CCCOc2ccc(-c3ccc(C(=O)N4[C@@H](C)CC[C@@H]4C)cc3)cc2)CC1 | 4.68 nM | 3.63 nM |  | 
CC1CCCN1C(=O)c1ccc(-c2ccc(OCCCN3CC[C@H](O)C3)cc2)cc1 (some centres not stated) | 8.32 nM | 25.7 nM |  | 
CCN(CC)CCCOc1ccc(-c2ccc(C(=O)N3CCCC3C)cc2)cc1 (configuration not stated) | 2.14 nM | 7.24 nM |  | 
O=C(c1ccc(-c2ccc(OCCCN3CCCC3)cc2)cc1)N1CCCC1 | 1.12 nM | 6.61 nM | > 1910 nM | > 1910 nM
CC(C)NCCCOc1ccc(-c2ccc(C(=O)N3CCOCC3)cc2)cc1 | 32.4 nM | 129 nM |  | 
CC1CCCN1C(=O)c1ccc(-c2ccc(OCCCN3CCOCC3)cc2)cc1 (configuration not stated) | 24.5 nM | 112 nM |  | 
